Test [1] deals with T1, Rat androgen receptors (rat AR) (Rattus norvegicus, UniProt P15207).
T1 construct: from tissue; host or cells: prostate of orchiectomized male SD rats (100,000 x g supernatant)
T1 sequence (P15207 1-902): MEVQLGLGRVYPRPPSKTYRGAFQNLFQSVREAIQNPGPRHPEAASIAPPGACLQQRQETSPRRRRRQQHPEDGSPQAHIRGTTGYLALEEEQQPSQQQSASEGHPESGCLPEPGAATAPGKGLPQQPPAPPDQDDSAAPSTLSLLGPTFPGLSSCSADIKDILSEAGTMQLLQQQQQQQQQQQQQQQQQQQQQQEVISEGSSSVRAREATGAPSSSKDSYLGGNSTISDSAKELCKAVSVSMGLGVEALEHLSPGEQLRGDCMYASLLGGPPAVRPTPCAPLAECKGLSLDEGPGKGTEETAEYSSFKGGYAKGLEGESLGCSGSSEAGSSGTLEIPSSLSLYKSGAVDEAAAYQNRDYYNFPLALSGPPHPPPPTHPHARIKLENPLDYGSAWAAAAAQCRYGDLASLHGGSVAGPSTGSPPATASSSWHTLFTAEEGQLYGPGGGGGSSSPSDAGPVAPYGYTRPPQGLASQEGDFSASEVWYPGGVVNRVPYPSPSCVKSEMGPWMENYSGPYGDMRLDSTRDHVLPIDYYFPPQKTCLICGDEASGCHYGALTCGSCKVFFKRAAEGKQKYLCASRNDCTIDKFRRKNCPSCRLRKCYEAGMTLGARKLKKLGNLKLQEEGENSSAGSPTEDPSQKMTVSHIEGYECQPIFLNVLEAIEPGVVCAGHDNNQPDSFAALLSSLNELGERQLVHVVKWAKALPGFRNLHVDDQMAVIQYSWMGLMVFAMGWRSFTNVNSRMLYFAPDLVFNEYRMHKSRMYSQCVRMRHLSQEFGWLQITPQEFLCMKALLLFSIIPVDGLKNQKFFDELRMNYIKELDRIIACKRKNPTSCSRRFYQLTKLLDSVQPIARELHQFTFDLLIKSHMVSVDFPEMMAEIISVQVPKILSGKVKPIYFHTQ
The experiment in a line: Test for competitive binding to rat androgen receptors. The note with it: 3H-testosterone, rat prostate AR fraction; hydroxyflutamide taken as 100. The method, then: Test for Competitive Binding to Rat Androgen Receptors (Rat AR)
Preparation of rat AR fraction: Prostates were harvested into ice-cooled ET buffer (10 mM Tris, 1 mM EDTA, 5 mM DTT, 10 mM sodium molybdate, pH 7.4) 3 days after orchiectomy in 11-week-old male SD rats. The prostate was finely cut, and ET buffer was added, whereafter the mixture was homogenized using a homogenizer. The homogenate was ultracentrifuged (100,000×g, 60 min, 4° C.), and the supernatant was used as a rat AR fraction (hereinafter referred to as ARF).
Binding test: ^3H-testosterone (hereinafter referred to as ^3H-T) was diluted with ET buffer. Dihydrotestosterone (DHT) was prepared so as to have a concentration (final concentration 1 μM) 400 times the maximum concentration of ^3H-T (2.5 nM). The ^3H-T solution was added to a 1.5 ml tube containing DHT, no DHT, or the test compound with a varying concentration. Further, 200 μg ARF was added to adjust the final volume to 100 μl. The mixture was incubated for 2 hours at 4° C., and then 300 μl of a 0.05% dextran T70-1.0% activated carbon solution was added. The mixture was further incubated for 15 minutes in ice to remove the free ^3H-T. After centrifugation (4° C., 2,500 rpm, 5 min), 275 μl of the supernatant was harvested into a liquid scintillation vial, and 2 ml of clear-sol was added. The mixture was stirred, allowed to stand, and measured for ^3H radioactivity with a liquid scintillation counter.
Calculation of the relative binding inhibition rate: The binding inhibition rate (%) of the compound according to the present invention was calculated from the following equation, and the 50% inhibition concentration (IC50) was calculated by the probit analysis of the concentration-binding inhibition curve.
The relative binding inhibition rate (RBA: Relative Binding Affinity) was obtained from the following equation (Endocrinology 138, 863-870, 1997): RBA=100×(IC50 of hydroxyflutamide)/(IC50 of the compound of the present invention) • RBA's of the compounds of the present invention, calculated as above, are shown in Table 10.

For test [2], the system named is orchiectomized (ORX) rats. The experiment in a line: Action of increasing prostate weight and bone mineral density in orchiectomized (ORX) rats (Test Example 4). As to conditions: 60 mg/kg s.c. once daily, 5 days weekly, 4 weeks, ORX SD rats, Mean ± SD; for Bone mineral density: right femur. It is filed as in vivo, rat. The protocol:
Action of Increasing Prostate Weight and Bone Mineral Density in Orchiectomized (ORX) Rats
Orchiectomy was performed in 12-week-old male SD rats. From the next day postoperation, the positive control compound dihydrotestosterone (DHT, 10 mg/kg) and the compound of the present invention (Example 60, 60 mg/kg), each dissolved in a 5% dimethyl sulfoxide-containing olive oil solution, were subcutaneously injected once daily, 5 days weekly, for 4 weeks. On the next day after final administration, the wet weight of the ventral prostate was measured to evaluate the AR agonistic effect of the compound of the present invention. On the next day following final administration, moreover, the right femur was removed, and fixed overnight in a 10% neutrally buffered formalin solution. Then, the bone mineral density at the site ranging from the diaphysis to the proximal end was measured by the method of double energy X-ray absorption using a bone mineral content-measuring machine (Aloka, DCS-600) to evaluate increasing action of bone mineral density of the compound of the present invention.

For test [3], the system named is orchiectomized (ORX) rats. Briefly: Action of increasing prostate weight in orchiectomized (ORX) rats (Test Example 3). It is filed as in vivo, rat. As to conditions: 30 mg/kg s.c. once daily for 8 days, ORX SD rats, Mean ± SD. The protocol:
Action of Increasing Prostate Weight in Rats After Orchiectomized (ORX) Rats
Orchiectomy was performed in 8-week-old male SD rats. From 5 days postoperation, the compound of the present invention (Example 60, 30 mg/kg), dissolved in a 5% dimethyl sulfoxide-containing olive oil solution, was subcutaneously injected once daily for 8 days. On the next day after final administration, the wet weight of the ventral prostate was measured to evaluate the AR agonistic effect of the compound of the present invention.

A further test deals with AR. Briefly: Assignment of compounds as having AR agonistic or AR antagonistic action (description, no method given). The note with it: compounds named as usable for category A diseases.
The subject of another test is orchiectomized rats. Briefly: Inhibitory action on testosterone-induced prostate weight increase in orchiectomized rats (Test Example 5). It counts as in vivo, rat. The note with it: TP 1 mg/kg s.c. alone, once daily for one week, orchiectomized SD rats, Mean ± SD. The protocol: Inhibitory Action on Testosterone-induced Prostate Weight Increase in Orchiectomized Rats
Testes were removed from 8-week-old male SD rats. From 5 days postoperation, 1 mg/kg of testosterone propionate (hereinafter referred to as TP) and 30 mg/kg of the compound of the present invention were simultaneously injected once daily for one consecutive week. The compound of the present invention was suspended in a 0.5% methyl cellulose solution, while TP was dissolved in cottonseed oil containing 5% ethanol. Each of the test compounds was subcutaneously administered. On the next day after final administration, the wet weight of the ventral prostate was measured to evaluate the AR antagonistic effect of the compound of the present invention on TP-induced prostate weight increase.

`CCS(=O)(=O)NCC(C)(C)C1Nc2ccc([N+](=O)[O-])cc2C2C=CCC21` (stereo not shown) [Example 60]: in test [1], the “RBA (Relative Binding Affinity = 100 x IC50 of hydroxyflutamide / IC50 of the compound)” value is given as 814. Also, the Prostate weight entry in test [2] is “significant increases in the prostate weights”; in test [2] (listed as Ex. 60) it was 56 ± 13 mg/body weight 100 g. The Bone mineral density result in test [2] (60 mg/kg) was “significantly increased the bone mineral density”; in test [2] (listed as Ex. 60, 60 mg/kg) it was 132 ± 7 mg/cm^2. Also, the Weight of prostate result in test [3] was “significantly increased the prostate weights”. Moreover, in the test with AR, the AR agonistic action result is listed as “AR agonistic action”.
As to `CC(C)NC(=S)NCC(C)(C)C1Nc2ccc([N+](=O)[O-])cc2C2C=CCC21` (stereo not shown) [Example 69], the “RBA (Relative Binding Affinity = 100 x IC50 of hydroxyflutamide / IC50 of the compound)” value in test [1] is 244. For the same compound, in test [3], the Weight of prostate is listed as 21 ± 2 mg/body weight 100 g.
Turning to `CCC(=O)O[C@H]1CC[C@H]2[C@@H]3CCC4=CC(=O)CC[C@]4(C)[C@H]3CC[C@]12C` [TP, testosterone propionate], the Prostate weight in the test with orchiectomized rats is reported as 80.4 ± 13.7 mg/body weight 100 g.

These data come from patent US7037919B1, “Tetrahydroquinoline derivatives” (Kaken Pharmaceutical Co. Ltd., priority 1999, dated 2006).
